The results in this text go back to patent US4117145A, “1-Substituted pyrazoles” (Bayer Aktiengesellschaft, priority 1975, dated 1978).

In the experiment the test system is thromb formation (left jugular vein, rats). As to the kind of experiment: Antithrombotic action: thromb formation in supercooled left jugular vein of rats, thromb weighed 4 hours later. In kind it is in vivo, rat. The procedure:
The left jugular vein of rats weighing 170 to 180 g was exposed under ether narcosis and supercooled to -12° C for 2 minutes to stimulate thromb formation. The thromb was isolated from the vein 4 hours later, and was weighed. The test animals were given the test preparation in tragacanth mucilage immediately before supercooling the wall of the blood vessel. As a result, the protective antithrombotic activity was tested in the first 4 hours after stimulating thromb formation.

Turning to `Cc1cc(OC(=O)c2ccco2)n(CCOc2ccc3ccccc3c2)n1` [Example 20, 5-(Furyl-(2)-carbonyloxy)-3-methyl-1-(2-(β-naphthyloxy)-ethyl)-pyrazole], the “reduction of size of the thrombs” value (after a 4 hour period of action) came out at 61%. In addition, the “Thromb size, mean value” (rats, 10 mg/kg, administered orally immediately before supercooling, thromb isolated 4 hours later, 12 experiments, control 115 ± 12 (14 experiments)) turned out to be 45 ± 10 µg. The compound also yielded an Inhibition in % (rats, 10 mg/kg, administered orally, versus control animals without active compound) of 61%.
